How the values were obtained:
SASKR (russian thistle) = assay: Pre-emergence herbicidal activity, cool season; assay type: in vivo, Salsola kali; conditions: lowest tested rate with 80% or greater inhibition; rates 300, 100, 30, 10 g/ha; about 14 days
In short: (§1)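 GR80 values derive from percent inhibition relative to untreated plants, read roughly 14 days after sowing and pre-emergence soil-surface treatment (compound in 50:50 acetone/water; rates typically 10, 30, 100, 300 g/ha). Warm-season weeds grew at 30/21° C day/night, cool-season ones at 18/13° C; an asterisk marks activity without reaching 80% at the highest rate.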

[1] = test system: CIRAR (canada thistle (seedling)); assay: Pre-emergence herbicidal activity, warm season; assay type: in vivo, Cirsium arvense; conditions: GR80 = lowest tested rate (300, 100, 30, 10 g/ha) with 80% or greater inhibition; approx. 14 days after treating; 30/21° C.
In short: as §1

SETVI (green foxtail) [2] = assay: Pre-emergence herbicidal activity, cool season; assay type: in vivo, Setaria viridis; conditions: GR80 = lowest tested rate (300, 100, 30, 10 g/ha) with 80% or greater inhibition; approx. 14 days after treating; 18/13° C.
In short: as §1

[3] = test system: SORHA (johnsongrass (seedling)); assay: Pre-emergence herbicidal activity, warm season; assay type: in vivo, Sorghum halepense; conditions: GR80 = lowest tested rate (300, 100, 30, 10 g/ha) with 80% or greater inhibition; approx. 14 days after treating; 30/21° C.
In short: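 Seeds sown in sterilised fertilised topsoil received surface-applied compound in 50:50 acetone/water, typically at 300, 100, 30 and 10 g/ha, then greenhouse-grown at 30/21° C (warm-season species) or 18/13° C (cool-season species). Percent inhibition versus untreated plants was scored at about 14 days, giving GR80; an asterisk marks activity short of 80% at the top rate.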

rice (ORYSA) = assay: Selectivity test, PPI, warm season crop; assay type: in vivo, Oryza sativa; conditions: PPI application
Description: A pre-prepared topsoil mixture (described above) was placed in a pot and compacted to a depth of 1.0 to 1.25 cm from the top of the pot. Seeds of each of several monocotyledonous and dicotyledonous annual plant species were placed on top of the soil. A sufficient quantity of soil to cover the seeds and level fill the pot was weighed into an open container. A known amount of the test compound was dissolved or suspended in an organic solvent and applied by spraying to this cover soil. The cover soil was thoroughly mixed to distribute the test compound throughout the cover soil, and was then applied as a cover layer over the seeds. Untreated soil was used as a cover layer for control pots. After treatment the plants were placed in a greenhouse where they received 0.64 cm of overhead irrigation. All subsequent watering consisted of a light overhead mist and/or subirrigation as needed for germination and growth. Tables 9 and 10 below relate to warm season plant species which were placed after pre-emergence treatment in a greenhouse with a 30/21° C. day/night temperature regime. Tables 11 and 12 below relates to cool season plant species placed after pre-emergence treatment in a greenhouse or growth chamber with an 18/13° C. day/night temperature regime. Only the compounds of Examples 1, 6, 8, 11, 13 and 15-20 were included in PPI tests.
Approximately 14 days after planting and treating, the plants were observed and herbicidal efficacy recorded as percent inhibition by comparison with untreated plants.
Additional pre-emergence and PPI tests were conducted by the procedures described above, on warm and cool season weed species in the presence of crop species, to assess herbicidal selectivity. Crop species included in warm season tests were corn (Zea mays, ZEAMX), rice (Oryza sativa, ORYSA) and soybean (Glycine max, GLYMX). Crop species included in cool season tests were wheat (Triticum aestivum, TRZAW), barley (Hordeunm vulgare, HORVX) and oilseed rape (Brassica napus, BRSNS).
Tables 15 and 16 relate to pre-emergence and PPI tests respectively on warm season species. Table 17 relates to pre-emergence tests on cool season species.

SETVI (green foxtail) [4] = assay: Post-emergence herbicidal activity, cool season; assay type: in vivo, Setaria viridis; conditions: abraded plants sprayed at 300, 100, 30 and 10 g/ha; about 14 days after treatment
In short: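 Greenhouse test on sand-abraded seedlings sprayed 9 to 14 days after planting at 300, 100, 30 and 10 g/ha; GR80 from percent inhibition versus controls at approximately 14 days.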

STEME (common chickweed) = assay: Pre-emergence herbicidal activity, cool season; assay type: in vivo, Stellaria media; conditions: lowest tested rate with 80% or greater inhibition; rates 300, 100, 30, 10 g/ha; about 14 days
In short: as §1

[5] = Oryza sativa, 10 g/ha, read-out: Percent inhibition ORYSA
[6] = Oryza sativa, 30 g/ha, read-out: Percent inhibition ORYSA
[7] = Oryza sativa, 100 g/ha, read-out: Percent inhibition ORYSA
[8] = Oryza sativa, 900 g/ha, read-out: Percent inhibition ORYSA

SMILES	Pre-emergence activity GR80, SASKR (SASKR (russian thistle))	Pre-emergence activity (GR80) CIRAR [1]	Pre-emergence activity (GR80) SETVI (SETVI (green foxtail) [2])	Pre-emergence activity (GR80) SORHA [3]	Percent inhibition ORYSA (rice (ORYSA); 10 g/ha)	Percent inhibition ORYSA (rice (ORYSA); 30 g/ha)	Percent inhibition ORYSA (rice (ORYSA); 100 g/ha)	Percent inhibition ORYSA (rice (ORYSA); 300 g/ha)	Percent inhibition ORYSA (rice (ORYSA); 900 g/ha)	Post-emergence activity GR80, SETVI (SETVI (green foxtail) [4])	Pre-emergence activity GR80, STEME (STEME (common chickweed))	inhibition at 10 g/ha (rice (ORYSA); [5])	inhibition at 30 g/ha (rice (ORYSA); [6])	inhibition at 100 g/ha (rice (ORYSA); [7])	inhibition at 300 g/ha (rice (ORYSA); Oryza sativa, 300 g/ha, read-out: Percent inhibition ORYSA)	inhibition at 900 g/ha (rice (ORYSA); [8])
CCN(CC)C(=O)n1cnc(S(=O)(=O)C(F)(F)SCc2ccccc2)n1 [Example 10]	100 g/ha	300 g/ha	300 g/ha	100 g/ha	0%	0%	0%	30%	0%	[empty]	300 g/ha	–	–	–	–	–
CCN(CC)C(=O)n1cnc(S(=O)(=O)C(F)(F)SCC(=O)OC)n1 [Example 11]	300 g/ha	300 g/ha	300 g/ha	300 g/ha	0%	0%	0%	40%	40%	[empty]	[empty]	–	–	–	–	–
C=C(C)CC(F)(F)S(=O)(=O)c1ncn(C(=O)N(CC)CC)n1 [Example 18]	300 g/ha	300 g/ha	30 g/ha	100 g/ha	–	–	–	–	–	[empty]	30 g/ha	0%	0%	0%	15%	10%
C=C(Br)CC(F)(F)S(=O)(=O)c1ncn(C(=O)N(CC)CC)n1 [Example 19]	100 g/ha	300 g/ha	100 g/ha	100 g/ha	–	–	–	–	–	[empty]	10 g/ha	0%	0%	0%	–	20%
C=C(CC(F)(F)S(=O)(=O)c1ncn(C(=O)N(CC)CC)n1)C[Si](C)(C)C [Example 20]	[empty]	100 g/ha	100 g/ha	300 g/ha	0%	0%	0%	10%	40%	[empty]	[empty]	–	–	–	–	–

Source: US6461997B1, “Triazole sulfones having herbicidal activity” (Monsanto Technology LLC, priority 1999, dated 2002)
